In the supplement of paper PMC11208160:

Test: recombinant UMI read abundance after kanamycin selection (control-corrected) (log10(CPM+1)); higher = more efficient recombination; extreme values may be limits of the assay; sequences stand for … in AGTGCAGAGAAAATCGGCCAGTTTTCTCTGCCTGCAGTCCGCATGCCGTGGGACCCCTTGGGTTCTAACCTGTTGCCTAGATTTATGCAGCGGACTGCCTTTCTCCCAAAGTGATAAACCGG…AGGTTGGTTTCACT; site = the 11-nt donor
How it was run: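 Counts of recombinant UMIs were reported as log10(CPM+1). Before that, they were converted to CPM, averaged over replicates and scaled using control-derived factors. They came from PCR across the donor–target junction after Escherichia coli carrying the pair library and target plasmid was plated on IPTG (0.07 mM) plus kanamycin, or unselected, in two replicates each.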
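Note: IS621 bridge recombinase in Escherichia coli cells against a fixed T5 target plasmid.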

Sequence	recombinant UMI read abundance (log10)
GTTCGATCATGGACCGGTTTTCCCGGTAATCCGTATTTGCA (site GTTCGATCTTG)	2.08
GTTCTCCCATGGACCGGTTTTCCCGGTAATCCGTATTTGCG (site GTTCTCCCTCG)	0.002
GTTGACACATGGACCGGTTTTCCCGGTAATCCGTATTTGAA (site GTTGACACTTT)	0.918
GTTGACACATGGACCGGTTTTCCCGGTAATCCGTATTTGGG (site GTTGACACTCC)	0.371
GTTGAGCCATGGACCGGTTTTCCCGGTAATCCGTATTTGTG (site GTTGAGCCTCA)	0.033
GTTGAGGCATGGACCGGTTTTCCCGGTAATCCGTATTTGTG (site GTAGAGGCTCA)	1.5
GTTGAGGCATGGACCGGTTTTCCCGGTAATCCGTATTTGTG (site GTCGAGGCTCA)	0.879
GTTGAGGCATGGACCGGTTTTCCCGGTAATCCGTATTTGTG (site GTGGAGGCTCA)	0.355
GTTGAGGCATGGACCGGTTTTCCCGGTAATCCGTATTTGTG (site GTTGAGGCTCA)	1.07
GTTGATCCATGGACCGGTTTTCCCGGTAATCCGTATTTGGT (site GTTGATCCTAC)	0.00442
GTTGATCCATGGACCGGTTTTCCCGGTAATCCGTATTTGGT (site GTTGCTCCTAC)	0.0151
GTTGATCCATGGACCGGTTTTCCCGGTAATCCGTATTTGGT (site GTTGGTCCTAC)	0.0158
GTTGATCCATGGACCGGTTTTCCCGGTAATCCGTATTTGGT (site GTTGTTCCTAC)	0.011
GTTGCAACATGGACCGGTTTTCCCGGTAATCCGTATTTGCC (site GTTGCAACTGG)	0
GTTGCCTCATGGACCGGTTTTCCCGGTAATCCGTATTTGGA (site GTTGCCTCTTC)	1.21
GTTGCTCCATGGACCGGTTTTCCCGGTAATCCGTATTTGGT (site GTTGATCCTAC)	0
GTTGCTCCATGGACCGGTTTTCCCGGTAATCCGTATTTGGT (site GTTGCTCCTAC)	0.00908
GTTGCTCCATGGACCGGTTTTCCCGGTAATCCGTATTTGGT (site GTTGGTCCTAC)	0.0466
GTTGCTCCATGGACCGGTTTTCCCGGTAATCCGTATTTGGT (site GTTGTTCCTAC)	0.0159
GTTGCTGCATGGACCGGTTTTCCCGGTAATCCGTATTTGGC (site GTTGCTGCTGC)	0.902
GTTGGAACATGGACCGGTTTTCCCGGTAATCCGTATTTGGC (site GTTAGAACTGC)	1.13
GTTGGAACATGGACCGGTTTTCCCGGTAATCCGTATTTGGC (site GTTCGAACTGC)	0
GTTGGAACATGGACCGGTTTTCCCGGTAATCCGTATTTGGC (site GTTGGAACTGC)	2.55
GTTGGAACATGGACCGGTTTTCCCGGTAATCCGTATTTGGC (site GTTTGAACTGC)	0
GTTGGAGCATGGACCGGTTTTCCCGGTAATCCGTATTTGCA (site GTTAGAGCTTG)	2.17

Sequence	recombinant UMI read abundance (log10)
GTTGGAGCATGGACCGGTTTTCCCGGTAATCCGTATTTGCA (site GTTCGAGCTTG)	0
GTTGGAGCATGGACCGGTTTTCCCGGTAATCCGTATTTGCA (site GTTGGAGCTTG)	2.49
GTTGGAGCATGGACCGGTTTTCCCGGTAATCCGTATTTGCA (site GTTTGAGCTTG)	0.659
GTTGGTCCATGGACCGGTTTTCCCGGTAATCCGTATTTGGT (site GTTGATCCTAC)	0.0104
GTTGGTCCATGGACCGGTTTTCCCGGTAATCCGTATTTGGT (site GTTGCTCCTAC)	0.00872
GTTGGTCCATGGACCGGTTTTCCCGGTAATCCGTATTTGGT (site GTTGGTCCTAC)	0.0121
GTTGGTCCATGGACCGGTTTTCCCGGTAATCCGTATTTGGT (site GTTGTTCCTAC)	0.00359
GTTGTTCCATGGACCGGTTTTCCCGGTAATCCGTATTTGGA (site GTTGTTCCTAC)	0
GTTGTTCCATGGACCGGTTTTCCCGGTAATCCGTATTTGGA (site GTTGTTCCTCC)	0.00995
GTTGTTCCATGGACCGGTTTTCCCGGTAATCCGTATTTGGA (site GTTGTTCCTGC)	0
GTTGTTCCATGGACCGGTTTTCCCGGTAATCCGTATTTGGA (site GTTGTTCCTTC)	0.0132
GTTTAGCCATGGACCGGTTTTCCCGGTAATCCGTATTTGGC (site GTTTAGCCTGC)	0
GTTTATCCATGGACCGGTTTTCCCGGTAATCCGTATTTGCT (site GATTATCCTAG)	0
GTTTATCCATGGACCGGTTTTCCCGGTAATCCGTATTTGCT (site GCTTATCCTAG)	0
GTTTATCCATGGACCGGTTTTCCCGGTAATCCGTATTTGCT (site GGTTATCCTAG)	0
GTTTATCCATGGACCGGTTTTCCCGGTAATCCGTATTTGCT (site GTTTATCCTAG)	0.492
GTTTCGGCATGGACCGGTTTTCCCGGTAATCCGTATTTGGG (site CGGGGCACTAA)	0.0198
GTTTGAACATGGACCGGTTTTCCCGGTAATCCGTATTTGGC (site GTTAGAACTGC)	0
GTTTGAACATGGACCGGTTTTCCCGGTAATCCGTATTTGGC (site GTTCGAACTGC)	0
GTTTGAACATGGACCGGTTTTCCCGGTAATCCGTATTTGGC (site GTTGGAACTGC)	0
GTTTGAACATGGACCGGTTTTCCCGGTAATCCGTATTTGGC (site GTTTGAACTGC)	0
GTTTGCACATGGACCGGTTTTCCCGGTAATCCGTATTTGCA (site GTTTGCACTTG)	0.292
GTTTGGACATGGACCGGTTTTCCCGGTAATCCGTATTTGGA (site GTTTGGACTTC)	0.0184
TAAAACTCATGGACCGGTTTTCCCGGTAATCCGTATTTGGG (site TAAAACTCTCC)	0.00919
TAAAATACATGGACCGGTTTTCCCGGTAATCCGTATTTGCA (site TAAAATACTTG)	0

Sequence	recombinant UMI read abundance (log10)
TAAAATACATGGACCGGTTTTCCCGGTAATCCGTATTTGCA (site TACAATACTTG)	0.953
TAAAATACATGGACCGGTTTTCCCGGTAATCCGTATTTGCA (site TAGAATACTTG)	0
TAAAATACATGGACCGGTTTTCCCGGTAATCCGTATTTGCA (site TATAATACTTG)	0.614
TAAACCGCATGGACCGGTTTTCCCGGTAATCCGTATTTGCG (site TAAACCGCTCG)	1.29
TAAAGACCATGGACCGGTTTTCCCGGTAATCCGTATTTGTA (site TAAAGACCTTA)	0.299
TAAAGACCATGGACCGGTTTTCCCGGTAATCCGTATTTGTA (site TAAAGCCCTTA)	0.624
TAAAGACCATGGACCGGTTTTCCCGGTAATCCGTATTTGTA (site TAAAGGCCTTA)	0.257
TAAAGACCATGGACCGGTTTTCCCGGTAATCCGTATTTGTA (site TAAAGTCCTTA)	0.166
TAAAGAGCATGGACCGGTTTTCCCGGTAATCCGTATTTGGG (site TAAAGAGCTCC)	0.356
TAAAGAGCATGGACCGGTTTTCCCGGTAATCCGTATTTGGG (site TAACGAGCTCC)	0.0368
TAAAGAGCATGGACCGGTTTTCCCGGTAATCCGTATTTGGG (site TAAGGAGCTCC)	0.0278
TAAAGAGCATGGACCGGTTTTCCCGGTAATCCGTATTTGGG (site TAATGAGCTCC)	0.00709
TAAAGCTCATGGACCGGTTTTCCCGGTAATCCGTATTTGTT (site TAAAGCTCTAA)	1.48
TAAAGTCCATGGACCGGTTTTCCCGGTAATCCGTATTTGGA (site TAAAGTCCTTA)	0.0112
TAAAGTCCATGGACCGGTTTTCCCGGTAATCCGTATTTGGA (site TAAAGTCCTTC)	0.231
TAAAGTCCATGGACCGGTTTTCCCGGTAATCCGTATTTGGA (site TAAAGTCCTTG)	0
TAAAGTCCATGGACCGGTTTTCCCGGTAATCCGTATTTGGA (site TAAAGTCCTTT)	0.978
TAAAGTCCATGGACCGGTTTTCCCGGTAATCCGTATTTGTC (site TAAAGTCCTAA)	0.0955
TAAAGTCCATGGACCGGTTTTCCCGGTAATCCGTATTTGTC (site TAAAGTCCTCA)	0.00821
TAAAGTCCATGGACCGGTTTTCCCGGTAATCCGTATTTGTC (site TAAAGTCCTGA)	0.327
TAAAGTCCATGGACCGGTTTTCCCGGTAATCCGTATTTGTC (site TAAAGTCCTTA)	0.00692
TAAAGTCCATGGACCGGTTTTCCCGGTAATCCGTATTTGTT (site TAAAGTCCTAA)	0.293
TAAAGTCCATGGACCGGTTTTCCCGGTAATCCGTATTTGTT (site TAAAGTCCTCA)	0.0132
TAAAGTCCATGGACCGGTTTTCCCGGTAATCCGTATTTGTT (site TAAAGTCCTGA)	0
TAAAGTCCATGGACCGGTTTTCCCGGTAATCCGTATTTGTT (site TAAAGTCCTTA)	0
